# Data from patent US20220274983A1, “JAK KINASE INHIBITOR AND USE THEREOF” (JIANGSU CAREPHAR PHARMACEUTICAL CO., LTD., priority 2019, published 2022).
# Counter-ions that a name gives are not always drawn.
# Key:
# THP1 cells = experiment: Proliferation inhibition based on THP1 cells (IL-4 stimulation, CTG); format: cell-based; conditions: Homo sapiens, THP-1, read-out: IC50 (uM), proliferation inhibitory activity on THP1 cells
# Procedure: (§1) 1. Cell plating: cultured cells were collected and counted for viable cells with Vi-Cell XR cell counter. The cell suspension was adjusted to an appropriate concentration with the medium and then added to a 96-well cell culture plate. 80 μL of the cell suspension was added to each well of the 96-well cell culture plate. The cell plating density depended on the growth rate of the cells. The cells were cultured in corresponding incubators.
# (§2) 2. Drug treatment and IL-4 stimulation: firstly, a series of test compound concentration (work solution-1) was prepared using DMSO with 3× gradient dilution, and then it was subjected to fold dilution with RPMI1640+10% FBS to obtain a work solution-2; Cisplatin's work solution-2 was prepared with RPMI1640+10% FBS, and then 1-10 μL solution taken from the work solution-2 was added to the prepared cell wells containing medium. The cells were cultured in the corresponding incubators. After incubation, 1-10 μL of IL-4 medium was added to each well and continued to culture. An appropriate CTG solution was added to each well.
# Cell Survial Rate Calculation
# (§3) T is the luminescence reading of a drug treatment group, and C is the average luminescence reading of a solvent control group.
# Pharmacokinetic study = format: in vivo; conditions: rat, plasma; rats, oral, 1-10 mg/kg
# Procedure: For the intravenous route and the oral route, the compound was formulated in an aqueous solution containing 5% DMSO+95% hydroxypropyl-β-cyclodextrin. Test animals were administered orally at 1-10 mg/kg and intravenously at 1-5 mg/kg. Each group included 3 rats. About 0.2 mL of blood was collected by jugular vein puncture with heparin sodium anticoagulant at the following time points: 0.083 h, 0.25 h, 0.5 h, 1 h, 2 h, 4 h, 6 h, 8 h, 10 h and 24 h. Plasma was separated by centrifugation at 5000-13000 rpm for 10 min within 1 hour after collecting the blood sample, and the plasma sample was analyzed on LC-MS/MS.
# The pharmacokinetic parameters were calculated using Phoenix WinNonlin 7.0 based on blood drug concentration data at different time points to provide parameters such as AUC0-t, AUC0-∞, MRT0-∞, Cmax, Tmax, and T1/2.
# rat CIA model [1] = experiment: Hindfoot foot volume in rat CIA model; format: in vivo, Lewis rats; conditions: CIA rats, hindfoot
# Procedure: (§10) Lewis rats (female, 10-12 weeks old) were obtained from Beijing Vital River Laboratory Animal Technology Co., Ltd. The rats were on a light and dark alternation for 12 h, and the environment was kept at a temperature of 23±2° C. and a humidity of 40-70%.
# (§11) Type II collagen solution (2 mg/mL) was prepared with 0.05 M acetic acid solution to allow to be fully dissolved, and placed overnight in the dark at 4° C. During the test, 2 mg/mL type II collagen (C II) solution and 4 mg/mL complete Freund's adjuvant (CFA) solution were mixed in equal volumes under ice bath conditions to fully emulsify. On day 0, an emulsion prepared by mixing equal volumes of C II (2 mg/mL) and CFA (4 mg/mL) was injected intracutaneously into the base of the tail of experimental rats for primary immunization, and on day 7, secondary booster immunization was performed.
# (§12) The therapeutic effect of the test compound was tested in a rat CIA model. The rats were randomly divided into groups with 8 animals in each group. All animals were immunized on day 0 and boosted on day 7.
# (§13) Therefore, the differences in body weight and foot volume after the onset of arthritis compared with the negative group, respectively, can be used to evaluate the therapeutic effect in the rat model. The experimental data were expressed as Mean±SEM; the data between the two groups was tested by unpaired t-test and p<0.05 was considered as a significant difference.
# BaF3 cells = experiment: Proliferation inhibition based on BaF3 cells (IL-3 medium, CTG); format: cell-based; conditions: Mus musculus, medium containing IL-3, read-out: IC50 (uM), proliferation inhibitory activity on BaF3 cells
# Procedure: 1. Cell plating: cultured cells were collected with RPMI1640+10% FBS (containing IL-3) medium and counted for viable cells with Vi-Cell XR cell counter. The cell suspension was adjusted to an appropriate concentration with RPMI1640+10% FBS (containing IL-3) medium and then added to a 96-well cell culture plate. A certain amount of cell suspension was added to each well of the 96-well cell culture plate. The cells were cultured in corresponding incubators.
# as §2, with “treatment:” for “treatment and IL-4 stimulation: firstly,”, “FBS (containing IL-3)” for “FBS”, “FBS (containing IL-3),” for “FBS,”, “incubators.” for “incubators. After incubation, 1-10 μL of IL-4 medium was added to each well and continued to culture.”
# (§4) Cell Survival Rate Calculation
# as §3
# Hela cells = experiment: Proliferation inhibition based on Hela cells (OSM stimulation, CTG); format: cell-based; conditions: Homo sapiens, read-out: IC50 (uM), proliferation inhibitory activity on Hela cells
# Procedure: as §1, with “50 μL-100” for “80”
# 2. Drug Treatment and OSM Stimulation
# as §2, with “Firstly,” for “2. Drug treatment and IL-4 stimulation: firstly,”, “medium.” for “medium. The cells were cultured in the corresponding incubators.”, “OSM” for “IL-4”, “well. The mixture was shaken and mixed for 1-5 min and then a luminescence signal was determined with an Envision2104 plate reader.” for “well.”
# as §4, §3
# [2] = rat, in vivo, 2 mg/kg
# Procedure: as §10, §11, §12, §13
# rat CIA model [3] = experiment: Arthritis index (AI) of extremities in rat CIA model; conditions: CIA rats, 2 mg/kg oral gavage once daily for 2 w, score 0-16;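 also: rats immunized with type II collagen plus complete Freund's adjuvant on day 0, boosted day 7, groups of 8, each paw graded 0-4 for swelling or redness, higher means worse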
# Procedure: as §10, §11, §12
# Foot volume was scored for the swelling of four toes at the same time, the score for each foot was 0-4, and the highest score for each rat was 16. 0—no swelling, normal appearance; 1—mild swelling or redness of the ankle joint, wrist joint or finger joint; 2—moderate swelling or redness of the ankle joint, wrist joint or finger joint; 3—severe swelling or redness of the ankle joint, wrist joint or finger joint; 4—very severe swelling or redness of the ankle joint, wrist joint or finger joint.
# JAK3 = biological target: T1, JAK3 (Homo sapiens, UniProt P52333); experiment: JAK kinase inhibitory activity, HTRF biochemical assay
# T1 sequence (P52333 1-1124): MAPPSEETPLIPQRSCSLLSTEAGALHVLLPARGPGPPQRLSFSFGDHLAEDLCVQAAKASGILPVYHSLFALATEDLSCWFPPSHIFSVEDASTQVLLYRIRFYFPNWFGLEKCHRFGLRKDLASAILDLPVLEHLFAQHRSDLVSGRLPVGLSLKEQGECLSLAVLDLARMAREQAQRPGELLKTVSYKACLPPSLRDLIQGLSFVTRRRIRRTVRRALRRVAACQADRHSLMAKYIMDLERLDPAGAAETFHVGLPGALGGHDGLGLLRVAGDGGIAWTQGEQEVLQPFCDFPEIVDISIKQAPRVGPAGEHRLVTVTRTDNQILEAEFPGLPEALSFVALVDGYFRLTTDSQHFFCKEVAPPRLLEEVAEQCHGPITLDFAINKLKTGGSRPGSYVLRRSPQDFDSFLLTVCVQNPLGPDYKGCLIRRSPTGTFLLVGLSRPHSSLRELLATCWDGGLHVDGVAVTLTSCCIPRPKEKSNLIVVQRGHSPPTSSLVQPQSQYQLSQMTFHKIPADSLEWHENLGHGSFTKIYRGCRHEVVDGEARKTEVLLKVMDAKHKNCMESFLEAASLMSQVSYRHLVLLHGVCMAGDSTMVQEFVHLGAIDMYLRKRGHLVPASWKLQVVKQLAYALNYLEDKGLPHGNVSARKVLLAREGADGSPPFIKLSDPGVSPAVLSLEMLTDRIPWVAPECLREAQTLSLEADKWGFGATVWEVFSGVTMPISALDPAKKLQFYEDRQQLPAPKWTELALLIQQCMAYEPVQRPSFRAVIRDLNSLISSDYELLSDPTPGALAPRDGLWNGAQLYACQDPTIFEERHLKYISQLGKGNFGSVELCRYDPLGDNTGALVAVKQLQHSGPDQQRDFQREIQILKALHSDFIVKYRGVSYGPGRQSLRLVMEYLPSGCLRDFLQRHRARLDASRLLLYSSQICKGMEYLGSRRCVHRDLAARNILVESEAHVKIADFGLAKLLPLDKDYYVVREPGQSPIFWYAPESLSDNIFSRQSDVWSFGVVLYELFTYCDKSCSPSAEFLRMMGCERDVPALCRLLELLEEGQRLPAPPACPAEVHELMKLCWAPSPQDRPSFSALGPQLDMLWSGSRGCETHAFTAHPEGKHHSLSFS
# Procedure: (§5) The compounds of the above embodiments were applied to the detection and screening of JAK kinase inhibitory activity.
# (§6) A corresponding volume of DMSO was added to each well of a first 96-well plate. 20-30 μL of 100-200 μM stock solution of different test compounds were added to each well. The mixture was shaken and mixed for 3 min. All of the compounds were subjected to 3× serial dilution. 60-80 μL Kinase buffer was added to each well of a second 96-well plate, and 1-2 μL of the solution taken from each well of the first 96-well plate was added to the corresponding well of the second 96-well plate. The mixture was shaken and mixed for 3 min. 5 μL of compound dilution taken from each well of the second compound dilution plate was transferred to the corresponding well of a 384-well test plate. 1-2 μL TK Substrate-biotin was added to each well of the test plate. 1-2 μL of enzyme mixture was added to each well. At the same time, a blank well without enzyme was set. 1-2 μL of ATP solution was added to each well, the plate was sealed and reacted at room temperature. The reaction time was as follows: JAK1: 2 h, JAK2: 30 min, JAK3: 30 min, and TYK2: 50 min. 3-5 μL of Streptavidin-XL665 and 3-5 μL of TK Antibody-cryptate were added to each well, the plate was sealed and allowed to stand at room temperature for 30 min to complete the reaction.
# (§7) The percentage of inhibition was calculated based on the following formula:
# (§8) Inhibition %=[(Ratiomax−Ratiocompound)/(Ratiomax−Ratiomin)]×100%
# (§9) Ratiocompound is the HTRF ratio at a given compound concentration, Ratiomin is the HTRF ratio added to the blank well, and Ratiomax is the HTRF ratio without adding the compound. GraphPad Prism 5.0 software was used to plot a sigmoid dose-inhibition rate curve with a non-linear regression model and calculate the IC50 value.
# JAK2 = JAK2 (Homo sapiens, UniProt O60674); experiment: as above
# Chain of JAK2 (O60674 whole entry, species assumed): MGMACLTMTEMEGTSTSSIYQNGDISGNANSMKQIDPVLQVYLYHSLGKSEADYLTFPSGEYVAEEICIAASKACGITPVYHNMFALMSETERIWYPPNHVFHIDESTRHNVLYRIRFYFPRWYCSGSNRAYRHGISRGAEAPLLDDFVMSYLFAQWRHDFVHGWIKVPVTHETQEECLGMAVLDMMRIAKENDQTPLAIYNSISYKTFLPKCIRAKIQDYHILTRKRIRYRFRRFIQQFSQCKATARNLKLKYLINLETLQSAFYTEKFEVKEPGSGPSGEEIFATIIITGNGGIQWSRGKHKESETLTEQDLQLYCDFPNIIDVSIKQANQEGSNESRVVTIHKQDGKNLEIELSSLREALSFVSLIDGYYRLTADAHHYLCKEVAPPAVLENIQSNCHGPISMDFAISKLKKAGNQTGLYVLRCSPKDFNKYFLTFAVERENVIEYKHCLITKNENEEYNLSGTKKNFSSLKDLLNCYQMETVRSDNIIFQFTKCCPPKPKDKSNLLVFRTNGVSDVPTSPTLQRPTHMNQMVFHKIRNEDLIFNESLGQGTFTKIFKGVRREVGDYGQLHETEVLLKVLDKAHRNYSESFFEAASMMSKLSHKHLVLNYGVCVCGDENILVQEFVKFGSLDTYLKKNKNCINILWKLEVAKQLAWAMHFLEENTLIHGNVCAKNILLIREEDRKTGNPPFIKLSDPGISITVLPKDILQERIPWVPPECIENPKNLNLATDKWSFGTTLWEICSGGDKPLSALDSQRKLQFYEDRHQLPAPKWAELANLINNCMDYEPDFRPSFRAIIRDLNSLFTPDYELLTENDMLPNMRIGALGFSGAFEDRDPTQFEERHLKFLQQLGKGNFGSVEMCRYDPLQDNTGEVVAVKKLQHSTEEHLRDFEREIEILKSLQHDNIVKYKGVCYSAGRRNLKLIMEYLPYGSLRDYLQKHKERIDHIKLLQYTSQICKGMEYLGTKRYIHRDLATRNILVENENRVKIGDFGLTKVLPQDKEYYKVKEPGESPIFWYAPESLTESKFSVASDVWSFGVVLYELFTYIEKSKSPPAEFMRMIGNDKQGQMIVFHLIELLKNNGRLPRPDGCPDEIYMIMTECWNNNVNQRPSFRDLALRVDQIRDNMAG
# Procedure: as §5, §6, §7, §8, §9
# JAK1 = JAK1 (Homo sapiens, UniProt P23458); experiment: as above
# Chain of JAK1 (P23458 whole entry, species assumed): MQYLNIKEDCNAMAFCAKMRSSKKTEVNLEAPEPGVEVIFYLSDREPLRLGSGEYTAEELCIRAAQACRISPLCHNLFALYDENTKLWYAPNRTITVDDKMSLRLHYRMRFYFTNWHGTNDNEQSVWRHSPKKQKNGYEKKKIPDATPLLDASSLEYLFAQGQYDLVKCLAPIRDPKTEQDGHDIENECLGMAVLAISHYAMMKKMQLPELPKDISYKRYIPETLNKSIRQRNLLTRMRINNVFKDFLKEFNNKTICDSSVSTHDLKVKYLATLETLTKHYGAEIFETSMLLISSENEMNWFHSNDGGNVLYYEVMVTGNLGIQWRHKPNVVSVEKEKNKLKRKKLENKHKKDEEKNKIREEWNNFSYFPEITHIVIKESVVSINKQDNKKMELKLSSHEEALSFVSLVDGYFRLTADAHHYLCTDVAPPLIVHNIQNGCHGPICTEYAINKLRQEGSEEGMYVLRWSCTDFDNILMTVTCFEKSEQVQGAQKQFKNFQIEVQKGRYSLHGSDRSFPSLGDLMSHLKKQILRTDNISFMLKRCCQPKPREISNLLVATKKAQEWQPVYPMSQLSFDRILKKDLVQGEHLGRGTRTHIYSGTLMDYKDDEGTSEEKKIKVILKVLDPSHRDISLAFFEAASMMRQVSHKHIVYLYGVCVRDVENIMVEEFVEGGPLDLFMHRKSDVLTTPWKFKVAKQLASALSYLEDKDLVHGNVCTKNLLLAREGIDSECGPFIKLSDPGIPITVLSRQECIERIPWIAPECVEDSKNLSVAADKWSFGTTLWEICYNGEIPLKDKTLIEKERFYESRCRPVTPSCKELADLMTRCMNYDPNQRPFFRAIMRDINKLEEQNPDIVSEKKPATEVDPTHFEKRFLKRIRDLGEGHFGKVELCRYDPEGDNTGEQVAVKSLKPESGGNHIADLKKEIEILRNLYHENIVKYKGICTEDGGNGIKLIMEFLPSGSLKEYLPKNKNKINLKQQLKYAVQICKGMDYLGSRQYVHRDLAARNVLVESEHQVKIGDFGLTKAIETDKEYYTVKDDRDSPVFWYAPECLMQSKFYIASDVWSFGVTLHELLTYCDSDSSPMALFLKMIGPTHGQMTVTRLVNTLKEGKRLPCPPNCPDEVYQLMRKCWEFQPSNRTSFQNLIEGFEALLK
# Procedure: as §5, §6, §7, §8, §9
# TYK2 = TYK2 (Homo sapiens, UniProt P29597); experiment: as above
# Chain of TYK2 (P29597 whole entry, species assumed): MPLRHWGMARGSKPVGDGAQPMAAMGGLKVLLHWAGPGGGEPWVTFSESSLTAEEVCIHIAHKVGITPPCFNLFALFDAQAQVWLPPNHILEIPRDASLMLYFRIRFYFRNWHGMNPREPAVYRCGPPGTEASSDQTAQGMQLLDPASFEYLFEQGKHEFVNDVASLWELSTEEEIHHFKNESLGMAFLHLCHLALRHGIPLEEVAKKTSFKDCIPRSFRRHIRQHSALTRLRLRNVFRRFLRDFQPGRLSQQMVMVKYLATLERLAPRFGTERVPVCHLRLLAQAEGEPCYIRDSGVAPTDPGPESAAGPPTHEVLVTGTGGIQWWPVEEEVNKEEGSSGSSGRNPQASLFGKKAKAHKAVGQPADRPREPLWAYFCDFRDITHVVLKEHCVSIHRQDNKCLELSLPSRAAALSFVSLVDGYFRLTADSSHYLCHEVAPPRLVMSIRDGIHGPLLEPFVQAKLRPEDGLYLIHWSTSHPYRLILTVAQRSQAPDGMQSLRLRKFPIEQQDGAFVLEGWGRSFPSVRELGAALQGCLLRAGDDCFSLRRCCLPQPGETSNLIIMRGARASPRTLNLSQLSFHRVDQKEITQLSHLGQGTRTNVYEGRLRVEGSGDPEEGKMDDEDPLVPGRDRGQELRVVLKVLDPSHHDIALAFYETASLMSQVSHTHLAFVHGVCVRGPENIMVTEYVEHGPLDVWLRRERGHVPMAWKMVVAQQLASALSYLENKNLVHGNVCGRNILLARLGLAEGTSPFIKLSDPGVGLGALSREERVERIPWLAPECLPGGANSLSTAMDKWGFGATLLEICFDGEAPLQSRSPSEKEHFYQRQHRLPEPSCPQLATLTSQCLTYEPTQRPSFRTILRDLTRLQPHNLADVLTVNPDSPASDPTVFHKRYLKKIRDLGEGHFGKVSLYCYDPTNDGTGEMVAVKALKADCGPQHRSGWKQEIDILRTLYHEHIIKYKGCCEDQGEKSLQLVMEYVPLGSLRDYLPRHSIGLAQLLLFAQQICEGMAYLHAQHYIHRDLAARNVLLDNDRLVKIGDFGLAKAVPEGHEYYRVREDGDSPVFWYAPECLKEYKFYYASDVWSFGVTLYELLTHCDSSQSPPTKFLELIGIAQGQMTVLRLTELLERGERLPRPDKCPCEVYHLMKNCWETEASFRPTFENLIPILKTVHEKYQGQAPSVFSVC
# Procedure: as §5, §6, §7, §8, §9
compound,measurement,setting,value
"O=C(Nc1nc2cccc(-c3ccc(CN4CCS(=O)(=O)CC4)cc3)n2n1)C1CC1 [Filgotinib, reference compound]",IC50,THP1 cells,5 to 30 µM
same,AUC,Pharmacokinetic study,2850 ng·h/mL
same,Cmax,Pharmacokinetic study,426 ng/mL
same,half-life,Pharmacokinetic study,3.9 h
same,Foot volume (ml)/Day,"rat CIA model [1]; 10 mg/kg oral gavage once daily for 2 w, day 0",2.597 ± 0.014 mL
same,Foot volume (ml)/Day,"rat CIA model [1]; 10 mg/kg oral gavage once daily for 2 w, day 8",2.589 ± 0.020 mL
same,Foot volume (ml)/Day,"rat CIA model [1]; 10 mg/kg oral gavage once daily for 2 w, day 11",2.700 ± 0.090 mL
same,Foot volume (ml)/Day,"rat CIA model [1]; 10 mg/kg oral gavage once daily for 2 w, day 14",3.644 ± 0.330 mL
same,Foot volume (ml)/Day,"rat CIA model [1]; 10 mg/kg oral gavage once daily for 2 w, day 17",4.702 ± 0.255 mL
same,Foot volume (ml)/Day,"rat CIA model [1]; 10 mg/kg oral gavage once daily for 2 w, day 21",4.829 mL
same,Foot volume (ml)/Day,"rat CIA model [1]; 10 mg/kg oral gavage once daily for 2 w, day 24",4.769 mL
same,Foot volume (ml)/Day,"rat CIA model [1]; 10 mg/kg oral gavage once daily for 2 w, day 28",4.363 mL
same,IC50,BaF3 cells,5 to 30 µM
same,IC50,Hela cells,5 to 30 µM
"C[C@@H]1CCN(C(=O)CC#N)C[C@@H]1N(C)c1ncnc2[nH]ccc12 [Tofacitinib, tofacitinib citrate, reference compound]","body weight course, in words",[2],"increased slightly on days 11-17, but then fell back"
same,Foot volume (ml)/Day,"rat CIA model [1]; 2 mg/kg oral gavage once daily for 2 w, day 0",2.637 ± 0.020 mL
same,Foot volume (ml)/Day,"rat CIA model [1]; 2 mg/kg oral gavage once daily for 2 w, day 8",2.619 ± 0.019 mL
same,Foot volume (ml)/Day,"rat CIA model [1]; 2 mg/kg oral gavage once daily for 2 w, day 11",2.646 ± 0.045 mL
same,Foot volume (ml)/Day,"rat CIA model [1]; 2 mg/kg oral gavage once daily for 2 w, day 14",3.848 ± 0.333 mL
same,Foot volume (ml)/Day,"rat CIA model [1]; 2 mg/kg oral gavage once daily for 2 w, day 17",4.636 ± 0.306 mL
same,Foot volume (ml)/Day,"rat CIA model [1]; 2 mg/kg oral gavage once daily for 2 w, day 21",4.710 mL
same,Foot volume (ml)/Day,"rat CIA model [1]; 2 mg/kg oral gavage once daily for 2 w, day 24",4.509 mL
same,Foot volume (ml)/Day,"rat CIA model [1]; 2 mg/kg oral gavage once daily for 2 w, day 28",4.125 mL
same,Arthritis index/Day,rat CIA model [3]; day 0,0 ± 0
same,Arthritis index/Day,rat CIA model [3]; day 8,0 ± 0
same,Arthritis index/Day,rat CIA model [3]; day 11,0.63 ± 0.32
same,Arthritis index/Day,rat CIA model [3]; day 14,3.75 ± 0.77
same,Arthritis index/Day,rat CIA model [3]; day 17,5.25 ± 0.62
same,Arthritis index/Day,rat CIA model [3]; day 21,8.75 ± 0.59
same,Arthritis index/Day,rat CIA model [3]; day 24,8.75 ± 0.73
same,Arthritis index/Day,rat CIA model [3]; day 28,7.88 ± 0.58
O=C(Nc1nc2cccc(-c3ccc(CN4CCS(=O)(=O)CC4)s3)n2n1)[C@H]1C[C@@H]1F [EXP-6],IC50,JAK3,> 500 nM
same,IC50,JAK2,50 to 500 nM
same,IC50,JAK1,50 to 500 nM
same,IC50,TYK2,> 500 nM
